Experimental data: patent publication US5776720A, “Assay reagent” (priority 1995, dated 1998)
Structures can show the parent of a compound that is named as a salt.

Assays:
Type in all cases: cell-based, human
Set-up in all cases: unit not given here
Conditions in all cases: normal donors
granulocytes = assay: Normal leukocyte enzyme activity (Table 3A), granulocytes
Excerpt: (§1) The measured fluorescence intensity can be converted from mean channel fluorescence (in peak or integrated mode) to MESF (molecules of equivalent soluble fluorochrome, Flow Cytometry Standards Corp. , San Juan, Puerto Rico) or International Units of hydrolysis per cell. A normal range of enzyme activity is established by assaying males and females in sufficient quantity to characterize the population levels statistically.
(§2) A normal in house adult donor pool was drawn, recording sex and determining that no known disease state was present at the time of sample draw. Criteria for rejecting samples included patients under medication, patients with infection or inflammation of any type, colds and flu as well as any known medical illness such as cancer, heart ailment and high blood pressure. A donor list of 75 patients has been developed and a mean and 2 sd range established. A subgroup of "super normals" was developed from this list by examining the 75 patients to determine which group falls closest to the mean for all enzymes in all cell types tested. These patients were used as the "wellness index" or best group of "normalcy" patients. If a study required the use of children or newborns then this same format was used to develop a data base for these age groups.

lymphocytes = assay: Normal leukocyte enzyme activity (Table 3A), lymphocytes
Excerpt: as §1, §2

monocytes = assay: Normal leukocyte enzyme activity (Table 3A), monocytes
Excerpt: as §1, §2

Row | Compound | NORMAL LEUKOCYTE ENZYME ACTIVITY, GRANS Mean (granulocytes) | NORMAL LEUKOCYTE ENZYME ACTIVITY, LYMPHS Mean (lymphocytes) | NORMAL LEUKOCYTE ENZYME ACTIVITY, MONOS Mean (monocytes)
1 | CCCCCCC(=O)Oc1ccc2c(c1)Oc1cc(OC(=O)CCCCCC)ccc1C21OC(=O)c2ccccc21 [DIHEP 6.5, FL(heptanoate)2] | 18.57 | 9.17 | 32.25
2 | CCCCCCCCCCCCCCCC(=O)Oc1ccc2c(c1)Oc1cc(OC(=O)CCCCCCCCCCCCCCC)ccc1C21OC(=O)c2ccccc21 [DIPAL 6.5, FL(palmitate)2] | 0.14 | 0.15 | 0.30
3 | N[C@@H](CC(=O)O)C(=O)Nc1ccc2c(c1)Oc1cc(NC(=O)[C@@H](N)CC(=O)O)ccc1C21OC(=O)c2ccccc21 [ASP, (H--L--Asp)2 --Rho 110.2TFA] | 0.45 | 0.26 | 0.66
4 | CC(C)[C@H](N)C(=O)N[C@@H](CO)C(=O)Nc1ccc2c(c1)Oc1cc(NC(=O)[C@H](CO)NC(=O)[C@@H](N)C(C)C)ccc1C21OC(=O)c2ccccc21 [VS, (H--L--Val--Ser)2 Rho 110.2TFA] | 8.27 | 3.81 | 19.61
5 | CCCCCC(=O)Oc1ccc2c(c1)Oc1cc(OC(=O)CCCCC)ccc1C21OC(=O)c2ccccc21 [DIHEX 6.5, FL(hexanoate)2] | 33.84 | 15.10 | 72.87
6 | CC(C)C[C@H](NC(=O)[C@@H](N)CC(C)C)C(=O)N[C@@H](CCCNC(=N)N)C(=O)Nc1ccc2c(c1)Oc1cc(NC(=O)[C@H](CCCNC(=N)N)NC(=O)[C@H](CC(C)C)NC(=O)[C@@H](N)CC(C)C)ccc1C21OC(=O)c2ccccc21 (stereo partly shown) [LLR, (H--L Leu--Leu--Arg)2 Rho 110.4TFA] | 9.46 | 4.09 | 54.32
7 | CC(C)[C@H](N)C(=O)N[C@@H](CCCCN)C(=O)Nc1ccc2c(c1)Oc1cc(NC(=O)[C@H](CCCCN)NC(=O)[C@@H](N)C(C)C)ccc1C21OC(=O)c2ccccc21 [VK, (Val-Lys)2 Rho 110] |  | 1.87 | 20.38
8 | N=C(N)NCCC[C@H](N)C(=O)Nc1ccc2c(c1)Oc1cc(NC(=O)[C@@H](N)CCCNC(=N)N)ccc1C21OC(=O)c2ccccc21 (stereo partly drawn) [ARG, (H--L--Arg)2 Rho 110.4TFA] | 5.16 | 1.47 | 10.34
9 | CCCC(=O)Oc1ccc2c(c1)Oc1cc(OC(=O)CCC)ccc1C21OC(=O)c2ccccc21 [DIBUT 6.5, FL(butyrate)2] | 6.43 | 4.08 | 10.37
10 | C[C@H](NC(=O)OCc1ccccc1)C(=O)NCC(=O)Nc1ccc2c(c1)Oc1cc(NC(=O)CNC(=O)[C@H](C)NC(=O)OCc3ccccc3)ccc1C21OC(=O)c2ccccc21 [Z--AG, (Z--Ala--Gly)2 Rho 110] | 33.19 | 15.17 | 34.51
11 | O=C1OC2(c3ccc(NC(=O)[C@@H]4CCCN4)cc3Oc3cc(NC(=O)[C@@H]4CCCN4)ccc32)c2ccccc21 [PRO, (H--L--Pro)2 --Rho 110.2TFA] | 9.19 | 1.70 | 6.83
12 | O=C1OC2(c3ccc(OC4O[C@H](CO)[C@H](O)[C@H](O)[C@H]4O)cc3Oc3cc(OC4O[C@H](CO)[C@H](O)[C@H](O)[C@H]4O)ccc32)c2ccccc21 (stereo partly drawn) [GALAC, (D-galactose)2 fluorescein] | 1.58 | 0.38 | 5.94
13 | N[C@@H](CO)C(=O)Nc1ccc2c(c1)Oc1cc(NC(=O)[C@@H](N)CO)ccc1C21OC(=O)c2ccccc21 [SER, (H--L--Ser)2 Rho 110.2TFA] | 3.40 | 1.35 | 6.49
14 | CC(C)C[C@H](NC(=O)CN)C(=O)Nc1ccc2c(c1)Oc1cc(NC(=O)[C@H](CC(C)C)NC(=O)CN)ccc1C21OC(=O)c2ccccc21 [GL, (H Gly--Leu)2 Rho 110.2FTA] | 29.16 | 9.42 | 41.78
15 | CC(=O)Oc1ccc2c(c1)Oc1cc(OC(C)=O)ccc1C21OC(=O)c2ccccc21 [DIACET 6.5, Fluorescein (acetate)2, reference compound] | 408.88 | 109.89 | 534.00
16 | CC(=O)Oc1ccc2c(c1)Oc1cc(OC(C)=O)ccc1C21OC(=O)c2ccccc21 [DIACET 7.5, Fluorescein (acetate)2, reference compound] | 348.01 | 89.30 | 432.78
17 | C[C@H](NC(=O)[C@@H](N)CCCCN)C(=O)Nc1ccc2c(c1)Oc1cc(NC(=O)[C@H](C)NC(=O)[C@@H](N)CCCCN)ccc1C21OC(=O)c2ccccc21 [KA--M, (Lys-Ala)2 Rho 110] | 1.74 | 0.55 | 8.74
18 | NC(=O)CC[C@H](N)C(=O)N[C@@H](CO)C(=O)Nc1ccc2c(c1)Oc1cc(NC(=O)[C@H](CO)NC(=O)[C@@H](N)CCC(N)=O)ccc1C21OC(=O)c2ccccc21 [QS, (H--L--Gln--Ser)2 Rho 110.2TFA] | 4.67 | 1.70 | 10.66
19 | C[C@H](N)C(=O)Nc1ccc2c(c1)Oc1cc(NC(=O)[C@H](C)N)ccc1C21OC(=O)c2ccccc21 [ALA, (Ala)2 Rho 110] | 149.02 | 75.85 | 172.33
20 | C[C@H](N)C(=O)N[C@@H](C)C(=O)Nc1ccc2c(c1)Oc1cc(NC(=O)[C@H](C)NC(=O)[C@H](C)N)ccc1C21OC(=O)c2ccccc21 [AA--TFA, (H--L--Ala--Ala)2 Rho 110.2TFA] | 154.81 | 56.95 | 158.31
21 | C[C@H](NC(=O)OCc1ccccc1)C(=O)N[C@@H](C)C(=O)Nc1ccc2c(c1)Oc1cc(NC(=O)[C@H](C)NC(=O)[C@H](C)NC(=O)OCc3ccccc3)ccc1C21OC(=O)c2ccccc21 [Z--AA, (Z--Ala--Ala)2 Rho 110] | 363.20 | 151.20 | 328.25
22 | CCC(=O)Oc1ccc2c(c1)Oc1cc(OC(=O)CC)ccc1C21OC(=O)c2ccccc21 [DIPRO 6.5, FL(propionate)2] | 349.18 | 86.11 | 441.65
23 | CCCCCCC(=O)Oc1ccc2c(c1)Oc1cc(OC(=O)CCCCCC)ccc1C21OC(=O)c2ccccc21 [DIHEP 7.5, FL(heptanoate)2] | 20.41 | 9.73 | 36.15
24 | CCCCCCCCCCCCCCCC(=O)Oc1ccc2c(c1)Oc1cc(OC(=O)CCCCCCCCCCCCCCC)ccc1C21OC(=O)c2ccccc21 [DIPAL 7.5, FL(palmitate)2] | 0.14 | 0.14 | 0.30
25 | CCCCC(=O)Oc1ccc2c(c1)Oc1cc(OC(=O)CCCC)ccc1C21OC(=O)c2ccccc21 [DIVAL 6.5, FL(valerate)2] | 92.81 | 33.13 | 184.51
26 | CCC(=O)Oc1ccc2c(c1)Oc1cc(OC(=O)CC)ccc1C21OC(=O)c2ccccc21 [DIPRO 7.6, FL(propionate)2] | 429.17 | 96.34 | 
27 | (Val-Lys)2 Rho 110 (modified) [VK--M] | 4.31 | 2.05 | 43.37
28 | (carbobenzyloxycarbonyl-Gly-Pro)2 Rho 110 (modified) [Z--GP--M] | 130.62 | 53.74 | 119.81
29 | CCCCCC(=O)Oc1ccc2c(c1)Oc1cc(OC(=O)CCCCC)ccc1C21OC(=O)c2ccccc21 [DIHEX 7.5, FL(hexanoate)2] | 17.57 | 7.54 | 37.22
30 | C[C@@H](O)[C@H](NC(=O)OCc1ccccc1)C(=O)N1CCC[C@H]1C(=O)Nc1ccc2c(c1)Oc1cc(NC(=O)[C@@H]3CCCN3C(=O)[C@@H](NC(=O)OCc3ccccc3)[C@@H](C)O)ccc1C21OC(=O)c2ccccc21 [Z--TP6.5, (carbobenzyloxycarbonyl-Thr-Pro)2 Rho 110 (pH 6.5)] | 58.05 | 21.97 | 49.69
